These results are taken from patent US9358249B2, “Use of Pateamine A for the treatment of age-related muscle wasting” (The Regents of the University of California, priority 2008, dated 2016).

Molecules are shown by their SMILES.

Test [1] has as its system eukaryotic translation (rabbit reticulocyte lysate system). Put plainly: In vitro translation assay, rabbit reticulocyte lysate system, firefly luciferase mRNA. The test is classed as biochemical. As to conditions: 100 μM resveratrol. The procedure:
The rabbit reticulocyte lysate system was treated with different concentration of resveratrol (0, 1, 10, 50, 100, 500 μM), and the translation of firefly luciferase mRNA was measured with Promega luciferase assay.
The in vitor translation assay is performed with the rabbit reticulocyte lysate system. We added different concentrations of resveratrol into the in vitor translation reaction, and used the translation of firefly luciferase mRNA as a readout. […] Translation is reduced by >70% at 100 μM resveratrol, the concentration at which we previously detected eIF4A protection in HeLa cell lysate.

For test [2], the target named is T1, human eIF4A (Homo sapiens, UniProt P60842).
T1 construct: endogenous in cells; host or cells: HeLa cell lysate
T1 sequence (P60842 whole entry): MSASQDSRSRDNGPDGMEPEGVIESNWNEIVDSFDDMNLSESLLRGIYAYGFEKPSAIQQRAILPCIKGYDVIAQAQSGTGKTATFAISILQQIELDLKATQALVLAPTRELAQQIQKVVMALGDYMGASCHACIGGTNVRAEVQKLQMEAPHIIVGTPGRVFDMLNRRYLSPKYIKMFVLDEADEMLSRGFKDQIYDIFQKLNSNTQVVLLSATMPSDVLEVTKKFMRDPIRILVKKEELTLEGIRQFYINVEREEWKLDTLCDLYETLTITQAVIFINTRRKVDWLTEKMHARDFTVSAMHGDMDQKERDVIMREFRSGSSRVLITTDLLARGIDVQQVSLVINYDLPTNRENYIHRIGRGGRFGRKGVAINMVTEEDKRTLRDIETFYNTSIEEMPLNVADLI
Put plainly: Proteolysis protection in human HeLa cell lysate by resveratrol (western blotting). The test is classed as binding. As to conditions: 100 μM resveratrol. The procedure: (§1) FIGS. 1A-1C illustrate the identification of eIF4A as the molecular target of resveratrol. FIG. 1A: Chemical structure of resveratrol. FIG. 1B: Lysate from untreated yeast cells or Hela cell were incubated with resveratrol or vehicle for 1 hr at room temperature, followed by proteolysis, SDS-PAGE, and silver staining. Mass spectrometry identifies the protected protein is eIF4A. FIG. 1C: Western blotting confirms the protection of yeast (TAP-tagged Tifi) eIF4A by resveratrol.

For test [3], the target named is T2, eukaryotic initiation factor 4A (eIF4A), yeast (TAP tagged Tif1) (Saccharomyces cerevisiae, UniProt P10081).
T2 construct: We performed proteolysis on yeast cell lysates that had been incubated with resveratrol or ethanol; TAP; endogenous in cells; host or cells: yeast cells (lysate); strain expressing TAP-tagged Tif1 for the western blot
T2 sequence (P10081 1-395): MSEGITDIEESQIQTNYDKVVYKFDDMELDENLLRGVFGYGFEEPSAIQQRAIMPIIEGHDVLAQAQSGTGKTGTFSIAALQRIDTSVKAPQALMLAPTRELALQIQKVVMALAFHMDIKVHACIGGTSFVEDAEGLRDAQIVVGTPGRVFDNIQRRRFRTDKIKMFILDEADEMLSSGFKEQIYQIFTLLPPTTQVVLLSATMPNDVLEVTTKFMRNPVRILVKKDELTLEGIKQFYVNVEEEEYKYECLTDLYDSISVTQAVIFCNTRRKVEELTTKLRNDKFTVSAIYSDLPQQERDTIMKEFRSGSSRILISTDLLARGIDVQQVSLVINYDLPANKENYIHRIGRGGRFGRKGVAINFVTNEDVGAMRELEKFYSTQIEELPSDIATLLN
The experiment in a line: Proteolysis protection of yeast cell lysate proteins by resveratrol (silver staining, mass spectrometry, western blotting). Format: binding. How it is done:
as §1
We performed proteolysis on yeast cell lysates that had been incubated with resveratrol or ethanol (vehicle control).

The test system of test [4] is cap-dependent (eIF4A-requiring) translation of renilla luciferase. Put plainly: Bicistronic dual-luciferase reporter pcDNA/Ren/HCV/FF in HEK 293 cells, Renilla luciferase. As to conditions: 0-100 μM, 33 hour after transfection. The test is classed as cell-based. The procedure:
(§2) FIG. 3A: Schematic diagram of the bicistronic dual-luciferase mRNA Ren-HCV-FF. FIG. 3B: Resveratrol inhibits cap-dependent translation initiation of Renilla luciferase but not eIF4A-independent translation of firefly luciferase. HEK 293 cells transfected with plasmid pcDNA/REN/HCV/FF are treated with different concentration of resveratrol (0, 0.1, 1, 10, 50, 100 μM). Translation of reporter genes was measured 33 hour after transfection using the Dual-Glo luciferase assay (Promega) with an Analyst HT plate reader (Molecular Devices).
(§3) One such illustrative assay is shown in Example 1.

Test [5] deals with HCV IRES mediated (eIF4A-independent) translation of firefly luciferase. Put plainly: Bicistronic dual-luciferase reporter pcDNA/Ren/HCV/FF in HEK 293 cells, firefly luciferase. Format: cell-based. As to conditions: 0-100 μM, 33 hour after transfection. The procedure:
as §2, §3

For `Oc1ccc(C=Cc2cc(O)cc(O)c2)cc1` [resveratrol], the “Translation reduced (firefly luciferase signal)” value in test [1] is greater than 70%. Moreover, the “protected band after proteolysis, confirmed as human eIF4A by western blotting” value in test [2] is “protected band of similar size was detected”. Also, the “eIF4A in protected bands (15 and 25 kDa) after proteolysis, mass spectrometry” value in test [3] (yeast cell lysate incubated with resveratrol vs ethanol vehicle) is “enriched in the resveratrol-treated sample”. Moreover, the “protection of yeast (TAP tagged Tif1) eIF4A, western blotting” value in test [3] (yeast lysate, proteolysis) is “further confirmed by western blotting”. For the same compound, the “expression of renilla luciferase (cap-dependent)” value in test [4] is given as “inhibited in a dose-dependent manner”. In addition, the “expression of firefly luciferase (HCV IRES)” value in test [5] is recorded as “unaffected”.
